# In patent US12605382B2, “Pharmaceutical composition for preventing, alleviating, or treating cancer containing 2,6-dichloro-4-(4-(4-hydroxycyclohexylamino)-7H- pyrrolo[2,3-d]pyrimidin-5-yl)phenol as active ingredient” (JBKLAB CO., LTD., priority 2021, dated 2026):
# What was measured:
# SKOV-3 = assay: Cell viability alone and in combination with cisplatin; type: cell-based, Human
# Description: (§1) Human ovarian cancer cell lines (SKOV-3 and OVCAR-3) were treated with control (no treatment), 0.1 μM of the compound of Example 1, 1 μM of cisplatin, and 0.1 μM of the compound of Example 1/1 μM of cisplatin, and the cell viability of SKOV-3 and OVCAR-3 was confirmed.
# OVCAR-3 = assay: as above; type: cell-based, Human
# Description: as §1
# [1] = system: breast cancer cells (MBA-MB-231); assay: Xenograft tumor growth inhibition, TNBC cells in nude mice; type: in vivo; details: xenograft Balb/c nude mice, tumor size measured for 3 weeks
# Description: An experiment was performed to confirm the tumor inhibition of the compound of Example 1, the active ingredient of the pharmaceutical composition of the present invention, on a xenograft tumor sample of breast cancer cells (MBA-MB-231), a human-derived TNBC cell line.
# Specifically, to confirm the […] inhibitory effect of the compound of Example 1, the active ingredient of the pharmaceutical composition of the present invention, on breast cancer cell viability, an experiment was performed using 80 female 5-week-old xenograft Balb/c nude mice, which were approximately 8 weeks old at the start of administration.
# The experimental xenograft Balb/c nude mice lacks T cells, the immune cells, were selected as an animal model suitable for transplanting human cancer cells. At the time of administration, animals within ±20% of the total average body weight were selected, and tumor growth was checked twice a week on the surface, and the size of the tumor was measured with a vernier caliper for 3 weeks.
# [2] = system: tumor tissues (MDA-MB-231); assay: H&E staining of tumor tissue, cell necrosis areas; type: in vivo, BALB/c-nude mice; details: T4, T5 and T6 groups
# Description: An experiment was performed to confirm the tumor necrosis effect of the compound of Example 1, the active ingredient of the pharmaceutical composition of the present invention, by measuring the number of apoptotic bodies in tumors and H&E staining of the tumor tissues in BALB/c-nude mice injected with cancer cell lines.
# Then, the sections were stained with hematoxylin and eosin, and cell necrosis areas were observed.
# SK-OV-3 = assay: Cytotoxicity on cancer cell lines; type: cell-based; details: SK-OV-3, dose dependently
# Description: (§2) The cytotoxicity of the compound of Example 1 against various cancer cell lines was evaluated through a process similar to the evaluation of liver cancer cell line inhibition described above. Etoposide, sold as an anticancer agent, was used as a control group drug.
# HCT15 = assay: Cytotoxicity on cancer cell lines; type: cell-based; details: HCT15, dose dependently
# Description: as §2
# SK-MEL-2 = assay: Cytotoxicity on cancer cell lines; type: cell-based; details: SK-MEL-2, dose dependently
# Description: as §2
# A549 = assay: Cytotoxicity on cancer cell lines; type: cell-based; details: A549, dose dependently
# Description: as §2
# [3] = 0.1 μM Example 1 combined with 1 μM cisplatin
compound,measurement,setting,value
"Oc1c(Cl)cc(-c2c[nH]c3ncnc(N[C@H]4CC[C@H](O)CC4)c23)cc1Cl [Example 1, (trans)-2,6-dichloro-4-(4-(4-hydroxycyclohexylamino)-7H-pyrrolo[2,3-d]pyrimidin-5-yl)phenol]",cell viability,SKOV-3; [3],further inhibited (synergistic effect)
same,cell viability,SKOV-3; 0.1 μM alone,suppressed
same,cell viability,OVCAR-3; [3],further inhibited (synergistic effect)
same,cell viability,OVCAR-3; 0.1 μM alone,suppressed
same,tumor growth,[1],significantly inhibit the tumor growth
same,areas of tissue necrosis compared to NC group (H&E),[2],more areas of tissue necrosis
same,toxicity to cancer cell line,SK-OV-3,excellent toxicity
same,toxicity to cancer cell line,HCT15,excellent toxicity
same,toxicity to cancer cell line,SK-MEL-2,excellent toxicity
same,toxicity to cancer cell line,A549,excellent toxicity
